From patent publication US20040142899A1, “Compositions and methods for enhanced biostability and altered biodistribution of oligonucleotides in mammals” (ISIS Pharmaceuticals, Inc., priority 1990, published 2004)

How the values were obtained:
[1] = Nuclease stability in HeLa cytoplasmic/nuclear extracts; type: in vitro ADME; conditions: cell extract diluted 1.4 times; oligonucleotide 20 μM
Protocol: The nuclease stability of Oligomer 51 and the conjugate were tested against Oligomer 50 in HeLa cytoplasmic/nuclear extracts. The cell extract was diluted 1.4 times. The final concentration of oligonucleotide was 20 μM. The half lives of the oligonucleotides were as follows: Oligomer 50, 1.0 hrs.; Oligomer 51, 3.5 hrs.; and Conjugate 1, 3.6 hrs.

mouse ICAM-1 mRNA = assay: ICAM-1 mRNA levels in LPS-treated mice (Northern analysis); type: in vivo; conditions: liver; 30 mg/kg i.v. 24 and 2 hours prior to LPS
Protocol: Mice were treated with oligonucleotides and examined as follows. […] Then, to induce ICAM-1 expression, bacterial lipopolysaccharide (LPS) was injected into the mice. After 2 hours, the mice were sacrificed, and particular organs, or specific portion thereof, were removed for further study. RNA was prepared from isolated, homogenized tissues essentially according to the guanidinium/CsCl purification method of Chirgwin et al. (Biochemistry, […], 18, 5294), electrophoresed and transferred to nylon membranes for hybridization studies (Northern analysis) according to methods well known in the art. In order to detect mouse ICAM-1 mRNA, a radiolabelled probe was prepared by random oligonucleotide-primed synthesis using a mouse ICAM-1 clone as a template. The blots were stripped and reprobed with a ^32P-labeled glyceraldehyde 3-phosphate dehydrogenase (G3PDH) probe (Clontech Laboratories, Inc., Palo Alto, Calif.) in order to confirm equal loading of RNA and to allow the levels of ICAM-1 transcripts to be normalized with regard to the G3PDH signals. Hybridizing bands were visualized by exposure to X-OMAT AR film and quantitated using a PHOSPHORIMAGER™ essentially according to the manufacturer's instructions (Molecular Dynamics, Sunnyvale, Calif.).

ICAM-1 protein = conditions: LPS-induced livers, HRP-conjugated secondary antibodies
complementary RNA = assay: Melting analysis (Tm) of 5-LO antisense sequence oligomers against complementary RNA; type: binding; conditions: 4 μM each strand, 100 mM NaCl, 10 mM Phosphate, 0.1 mM EDTA, pH 7.0
Protocol: (§1) The relative ability of oligonucleotides to bind to their complementary strand is compared by determining the melting temperature of the hybridization complex of the oligonucleotide and its complementary strand. The melting temperature (Tm), a characteristic physical property of double helices, denotes the temperature in degrees centigrade at which 50% helical versus coil (un-hybridized) forms are present. Tm is measured by using the UV spectrum to determine the formation and breakdown (melting) of hybridization. Base stacking, which occurs during hybridization, is accompanied by a reduction in UV absorption (hypochromicity). Consequently, […]. The higher the Tm, the greater the strength of the binding of the strands. Non-Watson-Crick base pairing has a strong destabilizing effect on the Tm. Consequently, absolute fidelity of base pairing is necessary to have optimal binding of an antisense oligonucleotide to its targeted RNA.
(§2) The test oligonucleotides (either the phosphodiester, phosphorothioate, cholic acid conjugated phosphodiester, cholic acid conjugated phosphorothioate or 5′-aminolink intermediate phosphodiester or phosphorothioate oligonucleotides of the invention or otherwise) and either the complementary DNA or RNA oligonucleotides were incubated at a standard concentration of 4 μM for each oligonucleotide in buffer (100 mM NaCl, 10 mM Na-phosphate, pH 7.0, 0.1 mM EDTA). Samples were heated to 90 degrees C. and the initial absorbance taken using a Guilford Response II spectro-photometer (Corning, Inc., Corning, N.Y.). Samples were then slowly cooled to 15° C. and then the change in absorbance at 260 nm was monitored during the heat denaturation procedure. The temperature was elevated 1 degree/absorbance reading and the denaturation profile analyzed by taking the 1st derivative of the melting curve. Data was also analyzed using a two-state linear regression analysis to determine the Tm's. The results of these tests are shown in Table 3 as are the HPLC retention times of certain of the test compounds.

complementary DNA = assay: Melting analysis (Tm) of 5-LO antisense sequence oligomers against complementary DNA; type: binding; conditions: 4 μM each strand, 100 mM NaCl, 10 mM Phosphate, 0.1 mM EDTA, pH 7.0
Protocol: as §1, §2

P-glycoprotein = P-glycoprotein expression by Western blotting in MDR 3T3 cells; type: cell-based, human; conditions: maximum only after 72 hours exposure
Protocol: Transfected MDR NIH 3T3 cells were grown and treated with oligonucleotides as described in Example (9)(B). In order to measure P-glycoprotein expression by Western blotting, cells were seeded in 60 mm dishes at 1.2×10^6 per dish and incubated for 24 hours in serum containing medium. The cells were treated with the oligomers for various times in serum free medium as described above. Cells were then extracted in lysis buffer (20 mM Tris, pH 7.5, 2 mM EDTA, 500 mM EGTA, 2 mM PMSF, 1 mM DTT, aprotonin (10 ug/ml), 0.5% Triton-X) and sonicated briefly. The lysate was spun in a microfuge tube for 20 minutes at 4° C. and the resulting supernatant was checked for protein content. Equal amounts of protein (usually 20 ug) were mixed with SDS sample buffer and boiled. Protein samples were separated by 8% SDS PAGE and the resolved proteins were electrophoretically transferred onto polyvinyllidene fluoride membranes (Millipore, Bedford, Mass.). The membranes were blocked (with 3% BSA, 2% non fat dry milk in PBS) and then treated with 2 ug/ml C219 anti-P-glycoprotein antibody (Signet, Dedham, Mass.). After washing three times with 0.1% Tween 20, the membranes were incubated with rabbit anti-mouse antibody (Cappel, Durham, N.C.). Immunoreactive proteins were visualized either by ECL (Enhanced Chemiluminescence, Amersham, Arlington Heights, Ill.) or with ^125I secondary antibodies.

MDR1 mRNA = MDR1 mRNA expression by Northern blotting in MDR 3T3 cells; type: cell-based, human; conditions: for MDR1 mRNA Level (arbitrary units) / % Control (MDR1 mRNA): oligonucleotide 1 μm, 24 hours, with Lipofectin; for MDR1 mRNA Level (arbitrary units): serum free medium; for % Control (MDR1 mRNA): control = untreated cells
Protocol: NIH 3T3 cells transfected with a plasmid containing the human MDR1 gene (pSK1 MDR) have been previously described (Kane et al., Gene, 1989, 84, 439). These cells have proven to be useful models for the study of multi-drug resistance phenomena. Cells were grown in DMEM media containing 10% fetal bovine serum (FBS) and 60 ng/ml colchicine in an atmosphere of 95% air, 5% CO2.
Cells were grown in […] flasks.
To measure MDR1 mRNA expression by Northern blotting, total cellular RNA was isolated by lysis in 4M guanidium isothiocyanate followed by a cesium chloride gradient, and the RNA was resolved on 1.2% agarose gels containing 1.2% formaldehyde and transferred to nitrocellulose membranes (Dean et al., J. Biol. Chem., 1994, 269, 16416). The blots were hybridized with a ^32P radiolabeled human MDR1 cDNA probe. The MDR1 cDNA probe was isolated by performing a polymerase chain reaction on the pSK1 MDR plasmid, as described previously (Alahari et al., Nucl. Acids Res., 1993, 21, 4079). The following oligonucleotide primers were used for PCR: […]
The resulting fragment was checked on an agarose gel and was radiolabeled with ^32P-dCTP using a commercially available random primer labeling kit (Amersham, Arlington Heights, Ill.) according to the manufacturer's instructions. The filters were hybridized overnight in hybridization buffer (25 mM KPO4, pH 7.4; 5×SSC; 5×Denhardt's solution, 100 ug/ml Salmon sperm DNA and 50% formamide) (Alahari et al., Nucl. Acids Res., 1993, 21, 4079). This was followed by two washes with 1×SSC, 0.1% SDS and two washes with 0.25×SSC, 0.1% SDS. Hybridizing bands were visualized by exposure to X-OMAT AR film and quantitated using a PhosphorImager™ (Molecular Dynamics, Sunnyvale, Calif.). To confirm equal loading of RNA, the blots were stripped and reprobed with a ^32P-labeled beta-actin probe (Clontech, Palo Alto, Calif).
In initial experiments, the MDR 3T3 cells were exposed to 1.0 μm concentrations of several different antisense oligonucleotides, or control oligonucleotides, in the presence of 20 ug/ml LIPOFECTIN® for 24 hours. […] NIH 3T3 cells transfected with pSK1 MDR plasmid were grown to 90% confluence and treated with oligonucleotide (1 μm) for 24 hours in the presence of Lipofectin® in serum free medium. Total RNA was isolated and fractionated on agarose formaldehyde gels and blotted onto nitrocellulose membranes. These membranes were probed with a ^32P radiolabeled 1.0 kb MDR1 cDNA, and then stripped and reprobed with a ^32P radiolabeled beta-actin cDNA probe to confirm equal loading of RNA, allowing the levels of MDR1 transcripts to be normalized with regard to the beta-actin bands. Transcript levels were quantitated using a PHOSPHORIMAGER™ (Molecular Dynamics, Sunnyvale, Calif.); the values are expressed in arbitrary units (the beta-actin transcripts were essentially constant).

“5′-GCC-TTT-CGC-GAC-CCA-ACA-CU [Oligomer 50, reference compound]” showed a half life [1] of 1.0 h.
Work on “5′-GCC-TTT-CGC-GAC-CCA-ACA-CU* [Oligomer 51]” yielded a half life [1] of 3.5 h.
In the case of “5′-GCG-TTG-CTC-TTC-TTC-TTG-CG [ISIS 13293, reference compound]”, the “reduction of hepatic ICAM-1 mRNA relative to LPS without oligonucleotide” value (mouse ICAM-1 mRNA) is reported as “no apparent effect” and the “ICAM-1 staining of liver sections” value (ICAM-1 protein) is reported as “appear quite dark”.
For “5′-TCC-AGG-TGT-CCG-CAT-C-3′ (antisense TCCAGGTGTCCGCATC; 5' cholic acid conjugate, chemistry not fully specified) [Oligomer 36, 5′-terminus cholic acid conjugate, phosphodiester]”, the “Tm RNA” value (complementary RNA) was 62.4 degrees centigrade and the “Tm DNA” value (complementary DNA) was 63.4 degrees centigrade.
For “5′-TCC-AGG-TGT-CCG-CAT-C-3′ (antisense TCCAGGTGTCCGCATC; phosphodiester, phosphorothioate or 5'-aminolink variants, which one is not given here, further chemistry not given here) [Oligomer 32, parent 5-LO antisense compound, normal phosphodiester linkages, reference compound]”, the “Tm RNA” value (complementary RNA; listed as 32) was 62.0 degrees centigrade and the “Tm DNA” value (complementary DNA; listed as 32) was 62.6 degrees centigrade.
With “5′-TCC-AGG-TGT-CCG-CAT-C-3′ (antisense TCCAGGTGTCCGCATC; phosphodiester, phosphorothioate or 5'-aminolink variants, which one is not given here, further chemistry not given here) [Oligomer 33, reference compound]” the “Tm RNA” value (complementary RNA; listed as 33) was 54.9 degrees centigrade and the “Tm DNA” value (complementary DNA; listed as 33) was 55.4 degrees centigrade.
For “5′-TCC-AGG-TGT-CCG-CAT-C-3′ (antisense TCCAGGTGTCCGCATC; phosphodiester, phosphorothioate or 5'-aminolink variants, which one is not given here, further chemistry not given here) [Oligomer 37]”, the “Tm RNA” value (complementary RNA; listed as 37) was 55.8 degrees centigrade and the “Tm DNA” value (complementary DNA; listed as 37) was 56.3 degrees centigrade.
With “CGG-TCC-CCT-TCA-AGA-TCC-AT (CGGTCCCCTTCAAGATCCAT; all phosphorothioate, sugars by position and methylation of C not given here) [ISIS 10440]” the “reduction of P-glycoprotein (Western assays)” value (P-glycoprotein) was “about 50%”.
With “CTC-CCG-CAC-ATC-TCC-GCG-CC (CTCCCGCACATCTCCGCGCC; all phosphorothioate, sugars by position and methylation of C not given here) [ISIS 10222, reference compound]” the “MDR1 mRNA Level (arbitrary units)” value (MDR1 mRNA) was 406,522 arbitrary units and the “% Control (MDR1 mRNA)” value (MDR1 mRNA) was 86%.
With “GAG-CCG-CTA-CTC-GAA-TGA-GC (GAGCCGCTACTCGAATGAGC; all phosphorothioate, sugars by position and methylation of C not given here) [ISIS 5990]” the “MDR1 mRNA Level (arbitrary units)” value (MDR1 mRNA) was 443,478 arbitrary units and the “% Control (MDR1 mRNA)” value (MDR1 mRNA) was 94%.
For “GTT-CAC-TGG-CGC-TTT-GTT-CC (GTTCACTGGCGCTTTGTTCC; all phosphorothioate, sugars by position and methylation of C not given here) [ISIS 5998]”, the “effect on MDR1 mRNA expression” value (MDR1 mRNA; parent phosphorothioate, Example 9(B)) was “unpromising effect on MDR1 mRNA expression”.
